Here are results for 32 compounds from PubChem BioAssay (NCI).

Assay in all cases: NCI anticancer screen, dose series, 48 h
Assay [1] has as its system MDA-N.
The test system of assay [2] is NCI-H23 lung.
Assay [3] deals with NCI-H460 lung.
For assay [4], the system named is RXF 393 renal.
Assay [5] concerns SF-268 CNS.
For assay [6], the system named is SK-OV-3 ovarian.
Assay [7] concerns UACC-257 melanoma.
Assay [8] deals with UACC-62 melanoma.
Assay [9] deals with HL-60(TB) leukemia.

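Step 1: Grow cells in 96-well plates. Step 2: Expose to compound for 48 hours at 5 concentrations. Step 3: Interpolate endpoints linearly; if unreached, use highest concentration. Here, GI50 denotes the concentration required for 50% inhibition of growth. Definition used: TGI = concentration required for complete inhibition of growth.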

Turning to `FC(F)(Sc1ncccn1)c1nc2ccccc2o1`, the TGI in [1], in [2], in assay [3], in [4], in assay [5] and in [6] was above 100 µM each time. In addition, the TGI in assay [7] and in assay [8] was above 100 µM each time.

As to `O=C(c1ccccc1)C1C(c2ccccc2[N+](=O)[O-])N1C1CCCCC1` (configuration not stated), the TGI in assay [1] is 19.7 µM; in [2] it was 37.4 µM; in assay [3] it was 24.8 µM; in [4], 17 µM; in assay [5], 38.3 µM; in assay [6] it was above 60.9 µM. Besides, the TGI in assay [7] was found to be 8.88 µM; in assay [8] it was 20.6 µM.

Take `Cc1c(-c2ccccc2)oc(=O)c2ccccc12`: the TGI in assay [1] is 59.3 µM; in [2], 56.6 µM; in assay [3], above 100 µM; in assay [4], 37.7 µM; in assay [5], 45.1 µM; in assay [6], 54.4 µM. Further, the TGI in assay [7] amounted to 30.7 µM; in assay [8], 33 µM.

Consider `N#Cc1nc(-c2ccsc2)oc1N`, for which the TGI in assay [9], in assay [1], in assay [4], in assay [5], in assay [6] and in assay [7] was above 100 µM each time. In assay [8], this compound yielded a TGI above 100 µM.

Consider `CC(C)(C)c1cc(C(C)(C)C)c2sc(=O)oc2c1O`, for which the TGI in [9] is 19.6 µM; in assay [1], 29.9 µM; in assay [3], 18.8 µM; in [4] it was 26.3 µM; in assay [5], 26.4 µM; in [6], 35.3 µM. The TGI in assay [7] is 20.2 µM.

Take `Cc1cc(C)n(C(=CC(=O)C(Cl)Cl)n2nc(C)cc2C)n1`: the TGI in assay [9] is 18.1 µM; in assay [2], 13.2 µM; in [3], 34.1 µM; in assay [5], above 100 µM; in assay [6] it was above 100 µM; in assay [7], 4.97 µM. The same compound yielded a TGI in assay [8] of 7.84 µM.

Take `O=c1[nH]c(NCCCCCO)nc2nc[nH]c12`: the TGI in [9], in assay [1], in assay [2], in assay [3], in assay [5] and in assay [7] was above 100 µM each time. In [8], this compound returned a TGI above 100 µM.

As to `O=C(Nc1nnc(-c2ccccc2)o1)C(SC(=S)N1CCCC1)c1ccccc1` (configuration not stated), the TGI was 48.1 µM in assay [9]; above 100 µM in assay [1]; 79.7 µM in [2]; 62.3 µM in assay [3]; above 100 µM in assay [4]; above 100 µM in [6]. This compound had a TGI in [7] above 100 µM.

`COc1cc(C2C3=C(NC(=O)C2C#N)c2ccc4ccccc4c2OCC3)cc(OC)c1OC` (configuration not stated): the TGI in assay [9] was above 100 µM; in [2] it was above 100 µM; in assay [3], above 100 µM; in assay [4], 32.9 µM; in assay [5], 64.1 µM; in [6], 62.4 µM. For the same compound, the TGI in assay [7] is above 100 µM.

As to `CN(C)c1ccc(/C=C2\N=C(c3ccccc3)N(c3nc4ccc(Sc5ccccc5)cc4[nH]3)C2=O)cc1`, the TGI is 33.3 µM in assay [9]; above 100 µM in assay [2]; above 100 µM in [3]; above 100 µM in [4]; above 100 µM in [5]; 49.2 µM in assay [6]. Moreover, the TGI in [7] was 90.9 µM; in assay [8], 82.4 µM.

As to `COc1cc(-c2cc(OC)c(OC)c3ccc(Br)cc23)c2cc(Br)ccc2c1OC`, the TGI is 42.7 µM in assay [1]; 45 µM in assay [2]; above 100 µM in [3]; 41 µM in assay [4]; 50.8 µM in [5]; 71.8 µM in assay [6]. Moreover, the TGI stood at 92.1 µM in assay [7] and 47.7 µM in assay [8].

For the compound `O=C(CCCCCCCCC(=O)N1C(=O)CC(=O)N(c2ccc(Cl)cc2)C1=S)N1C(=O)CC(=O)N(c2ccc(Cl)cc2)C1=S`, the TGI in [1], in [2], in assay [3], in assay [4], in assay [5] and in assay [6] was above 100 µM each time. In addition, the TGI in assay [7] and in [8] was above 100 µM throughout.

`Oc1ccccc1/C=N/c1nc(-c2ccccc2)cs1`: the GI50 was 36 µM in assay [9]; 18.4 µM in assay [2]; above 100 µM in [3]; 10.4 µM in [4]; 81.1 µM in [5]; above 100 µM in assay [6]. The GI50 was 44.3 µM in assay [7] and 34.5 µM in [8]. Besides, the TGI is above 100 µM in assay [9]; 41.8 µM in assay [2]; above 100 µM in assay [3]; 32.6 µM in assay [4]; above 100 µM in assay [5]; above 100 µM in assay [6]. For the same compound, the TGI in assay [7] and in assay [8] was above 100 µM in each case.

For `O=C(CN1CCCC1)Nc1ccc2c(c1)C1Oc3ccccc3CC1CO2` (configuration not stated), the TGI is above 100 µM in assay [9]; 88.2 µM in assay [1]; above 100 µM in [2]; above 100 µM in assay [5]; above 100 µM in [6]; 44.3 µM in assay [7]. In assay [8], this compound yielded a TGI of 33 µM.

For `CCOC(=O)NCC(=O)NCC(=O)NCC(N)=O`, the TGI in assay [1], in [2], in assay [4], in [5], in assay [6] and in [7] was above 100 µM in each case. For the same compound, in [8], the TGI was above 100 µM.

Take `CC1(O)CC23CC(O)C4(O)C(CC(O)C4(C)C)C(C)(O)C2CCC1C3O` (configuration not stated): the TGI in assay [9], in [2], in assay [3], in [5], in assay [6] and in assay [7] was above 100 µM in each case. The TGI in assay [8] is above 100 µM.

On to `COc1cc2ccc(C(C)NCC#N)cc2cc1OC` (configuration not stated), for which the TGI in [9], in assay [1], in [3], in [4], in assay [5] and in assay [6] was above 100 µM in each case. Also, the TGI in [7] and in assay [8] was above 100 µM in each case.

As for `C[C@]12CC[C@H]3[C@@H](CCC4=C/C(=N/OCCN5CCCCC5)CC[C@@]43C)[C@@H]1CC[C@@H]2O`, the TGI came out at 8.05 µM in assay [9]; 34.5 µM in assay [1]; 30.4 µM in [2]; 40.8 µM in [4]; 30.3 µM in assay [6]; 37.3 µM in assay [7].

Consider `COc1cc2c(cc1OCCN1CCN(CCOc3cc4c(cc3OC)C(=O)N3CCC[C@H]3C=N4)CC1)N=C[C@@H]1CCCN1C2=O`, for which the TGI in assay [9] is above 100 µM; in assay [2], 46 µM; in [3] it was above 100 µM; in [4], 56.3 µM; in assay [5] it was above 100 µM; in [6], above 100 µM. Moreover, the results for the TGI in [7] and in assay [8] were above 100 µM and 40 µM, respectively.

Consider `CC(C)(C)[C@H]1NC(=O)CN1C(=O)OCc1ccccc1`, for which the TGI in [9], in assay [2], in [3], in [4], in assay [5] and in assay [6] was above 100 µM each time. For the same compound, the TGI in assay [7] and in assay [8] was above 100 µM each time.

Take `CCOC(=O)/C(=C/c1cn(C(C)=O)c2ccccc12)P(=O)(OC)OC`: the TGI in [9] was 48.4 µM; in assay [2], above 100 µM; in [3] it was 79.7 µM; in [6] it was above 100 µM; in [7], 41.5 µM.

As to `CCn1c(-c2cc3ccccc3cc2OC(C)=O)n[nH]c1=S`, the TGI in assay [9] is 19.5 µM; in assay [2] it was 87.9 µM; in assay [3], 69.8 µM; in [4], 33.5 µM; in assay [5] it was above 100 µM; in assay [6] it was above 100 µM. This compound also had a TGI in assay [7] of 62.6 µM.

With `CN(C)CCCNC(=O)N/N=C/c1ccccn1`, the TGI in [9], in assay [1], in assay [3], in [4], in [5] and in assay [6] was above 10 µM each time. For the same compound, the TGI in [7] and in assay [8] was above 10 µM in each case.

In the case of `COc1ccc(C=C2C(C)=NN(c3cccc(Cl)c3)C23C(Cl)C(=O)N3c2nc3ccccc3s2)cc1` (configuration not stated), the TGI in assay [9] came out at 6.62 µM; in assay [1], 44.6 µM; in assay [2] it was 36 µM; in [3], 66.6 µM; in assay [4], 28 µM; in assay [5] it was 78.3 µM. For the same compound, the TGI in assay [6] amounted to 89.7 µM; in assay [7], 72.3 µM.

Regarding `CC1CC(C)(C)CC(OCCN2CCCCC2)(c2ccccc2)C1` (configuration not stated), the TGI in assay [9] was determined as 27.9 µM; in assay [2], 32.6 µM; in [3], 17.5 µM; in assay [4], 23.8 µM; in assay [5], 23.9 µM; in [6], 28.3 µM. The TGI in [7] is 24.2 µM; in assay [8], 29.6 µM.

Consider `CCOC(=O)CSc1nc(-c2ccc(Cl)cc2)c(C#N)c(=O)[nH]1`, for which the TGI in [9] was 71.9 µM; in [2], above 100 µM; in assay [3], above 100 µM; in assay [4] it was above 100 µM; in assay [5], above 100 µM; in assay [6] it was above 100 µM. The TGI in [7] and in [8] was above 100 µM in each case.

For `CCCCCCCCCCCCCCCC[N+](C)(C)CCl`, the TGI was determined as 3.12 µM in assay [9]; 15.4 µM in assay [1]; 27.8 µM in [2]; 4.74 µM in assay [3]; 9.38 µM in assay [5]; 27.7 µM in assay [6]. Also, the TGI in [7] was determined as 21.1 µM; in assay [8] it was 6.46 µM.

Regarding `O=c1[nH]c2ccccc2c(=O)n1/N=C\c1ccccc1O`, the TGI in [9], in [1], in [2], in [3], in assay [5] and in [6] was above 100 µM in each case. Besides, the TGI in [7] and in assay [8] was above 100 µM throughout.

With `CC(C)(C)C(=O)C(N)C(=O)C(C)(C)C`, the TGI in assay [9], in assay [1], in [3], in assay [4], in [5] and in [6] was above 100 µM in each case. The TGI in assay [7] and in assay [8] was above 100 µM throughout.

Turning to `COc1ccc(C2CC(c3cccc(Nc4ccncc4)c3)=NN2c2ccccc2)cc1` (configuration not stated), the GI50 was 2 µM in [9]; 1.88 µM in [2]; 1.8 µM in [3]; 1.55 µM in assay [4]; 2.91 µM in assay [5]; 5.53 µM in assay [6]. The GI50 in assay [7] is 2 µM; in [8], 1.74 µM. The TGI was determined as 4.06 µM in [9]; 3.87 µM in assay [2]; 3.34 µM in assay [3]; 3.02 µM in [4]; 9.98 µM in assay [5]; 20.9 µM in assay [6]. In addition, the TGI came out at 4.17 µM in [7] and 3.21 µM in assay [8].

In the case of `C/C(=C\C(=O)O)C(=O)N(C)c1ccccc1I`, the TGI in [1], in assay [2], in assay [3], in assay [4], in assay [5] and in [6] was above 100 µM in each case. Also, the TGI in [7] and in [8] was above 100 µM throughout.

On to `Cn1c(COC(=O)NC2CCCCC2)c(COC(=O)NC2CCCCC2)c2ccc3ccccc3c21`, for which the TGI in assay [1] was above 100 µM; in [2] it was 71.6 µM; in assay [3], 13.5 µM; in assay [4] it was 83.3 µM; in [5] it was above 100 µM; in assay [6], above 100 µM. The TGI in assay [7] and in assay [8] was above 100 µM in each case.
